# Measurements published in US11173151B2, “Substituted triazole derivatives and uses thereof” (BAYER AKTIENGESELLSCHAFT, priority 2017, dated 2021).
# pIC50: −log10 of the molar value. Read-outs that look alike come from different tables or passages of the source.
# What was measured:
# [1] = biological target: T1, human V1a receptor (Homo sapiens, UniProt P37288); assay: Cellular in vitro assay for determining vasopressin receptor activity, V1a receptor cell line (CHO, aequorin luminescence); assay type: cell-based; conditions: for pIC50: CHO cell line transfected with human V1a receptor, [Arg]-vasopressin at EC50 concentration, read-out: IC50 hV1a; for ratio IC50 hV2/hV1a: selectivity ratio IC50 hV2 / IC50 hV1a
# T1 construct: expressed in transfected cells; host or cells: CHO K1 (ATCC), also stably transfected with a modified aequorin
# T1 sequence (P37288 whole entry): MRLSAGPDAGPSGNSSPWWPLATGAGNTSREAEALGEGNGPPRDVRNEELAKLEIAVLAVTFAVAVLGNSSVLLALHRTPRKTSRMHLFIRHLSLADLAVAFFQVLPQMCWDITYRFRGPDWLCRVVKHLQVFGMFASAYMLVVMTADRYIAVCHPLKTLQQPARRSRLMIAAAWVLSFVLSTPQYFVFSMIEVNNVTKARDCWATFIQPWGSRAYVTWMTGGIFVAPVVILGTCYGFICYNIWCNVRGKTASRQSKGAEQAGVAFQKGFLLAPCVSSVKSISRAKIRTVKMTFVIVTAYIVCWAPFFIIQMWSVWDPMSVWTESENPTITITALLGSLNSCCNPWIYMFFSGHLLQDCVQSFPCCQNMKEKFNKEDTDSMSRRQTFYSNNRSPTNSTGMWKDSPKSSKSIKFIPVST
# Procedure: (§1) B-1. Cellular In Vitro Assay for Determining Vasopressin Receptor Activity
# (§2) The identification of agonists and antagonists of the V1a and V2 vasopressin receptors from humans, rats and dogs as well as the quantification of the activity of the compounds of the invention is carried out using recombinant cell lines. These cell lines originally derive from a hamster's ovary epithelial cell (Chinese Hamster Ovary, CHO K1, ATCC: American Type Culture Collection, Manassas, Va. 20108, USA). The test cell lines constitutively express the human, rat or dog V1a or V2 receptors. In case of the Gαq-coupled V1a receptors, cells are also stably transfected with a modified form of the calcium-sensitive photoproteins aequorin (human and rat V1a) or obelin (dog V1a), which, after reconstitution with the cofactor coelenterazine, emit light when there are increases in free calcium concentrations [Rizzuto R, Simpson A W, Brini M, Pozzan T, Nature 358, 325-327 (1992); Illarionov B A, Bondar V S, Illarionova V A, Vysotski E S, Gene 153 (2), 273-274 (1995)]. The resulting vasopressin receptor cells react to stimulation of the recombinantly expressed V1a receptors by intracellular release of calcium ions, which can be quantified by the resulting photoprotein luminescence. The Gs-coupled V2 receptors are stably transfected into cell lines expressing the gene for firefly luciferase under control of a CRE-responsible promoter. Activation of V2 receptors induces the activation of the CRE-responsive promoter via cAMP increase, thereby inducing the expression of firefly luciferase. The light emitted by photoproteins of V1a cell lines as well as the light emitted by firefly luciferase of V2 cell lines corresponds to the activation or inhibition of the respective vasopressin receptor. The bioluminescence of the cell lines is detected using a suitable luminometer [Milligan G, Marshall F, Rees S, Trends in Pharmacological Sciences 17, 235-237 (1996)].
# Vasopressin V1a Receptor Cell Lines:
# On the day before the assay, the cells are plated out in culture medium (DMEM/F12, 2% FCS, 2 mM glutamine, 10 mM HEPES, 5 μg/ml coelenterazine) in 384-well microtiter plates and kept in a cell incubator (96% humidity, 5% v/v CO2, 37° C.). On the day of the assay, test compounds in various concentrations are placed for 10 minutes in the wells of the microtiter plate before the agonist [Arg]-vasopressin at EC50 concentration is added. The resulting light signal is measured immediately in a luminometer.
# (§3) Table 1A below lists individual IC50 values for the compounds of the invention (including racemic mixtures as well as separated enantiomers) that were obtained from cell lines transfected with the human V1a or V2 receptor: […]
# [2] = biological target: T2, human V2 receptor (Homo sapiens, UniProt P30518); assay: Cellular in vitro assay for determining vasopressin receptor activity, V2 receptor cell line (CHO, CRE-luciferase); assay type: cell-based; conditions: CHO cell line transfected with human V2 receptor, [Arg8]-vasopressin at EC50 concentration, read-out: IC50 hV2
# T2 construct: expressed in transfected cells; host or cells: CHO K1 (ATCC) expressing firefly luciferase under a CRE-responsive promoter
# T2 sequence (P30518 whole entry): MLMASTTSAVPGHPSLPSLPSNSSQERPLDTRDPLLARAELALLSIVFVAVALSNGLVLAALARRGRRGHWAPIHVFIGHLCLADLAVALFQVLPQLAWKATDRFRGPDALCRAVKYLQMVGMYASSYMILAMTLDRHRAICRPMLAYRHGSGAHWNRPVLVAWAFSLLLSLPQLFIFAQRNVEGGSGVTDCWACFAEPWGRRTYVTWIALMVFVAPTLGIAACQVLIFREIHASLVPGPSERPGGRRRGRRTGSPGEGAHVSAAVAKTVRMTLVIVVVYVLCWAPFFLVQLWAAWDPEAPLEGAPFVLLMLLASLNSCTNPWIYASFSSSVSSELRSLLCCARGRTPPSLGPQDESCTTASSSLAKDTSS
# Procedure: as §1, §2
# Vasopressin V2 Receptor Cell Lines:
# On the day before the assay, the cells are plated out in culture medium (DMEM/F12, 2% FCS, 2 mM glutamine, 10 mM HEPES) in 384-well microtiter plates and kept in a cell incubator (96% humidity, 5% v/v CO2, 37° C.). On the day of the assay, test compounds in various concentrations and the agonist [Arg^8]-vasopressin at EC50 concentration are added together to the wells, and plates are incubated for 3 hours in a cell incubator. Upon addition of the cell lysis reagent Triton™ and the substrate luciferin, luminescence of firefly luciferase is measured in a luminometer.
# as §3
pIC50 [1],ratio IC50 hV2/hV1a [1],pIC50 ([2]; 3 hours),pIC50 [2],Compound
6.52,3.1,6.03,,CCC(=O)Nc1ncccc1-n1cnc(Cn2nc(-c3ccc(Cl)cc3)n(C[C@H](O)C(F)(F)F)c2=O)n1 [Example 147]
8.35,311.1,5.85,,"O=C(Nc1ncccc1-n1cnc(Cn2nc(-c3ccc(Cl)cc3)n(C[C@H](O)C(F)(F)F)c2=O)n1)C1CC1F (single isomer, unassigned) [Example 86]"
5.44,0.3,,5.90,"O=C1CN(C(=O)c2nc(Cn3nc(-c4ccc(Cl)cc4)n(C[C@H](O)C(F)(F)F)c3=O)nn2-c2ncccc2C(=O)NCCC(F)(F)F)CCN1 [Example 512, 2-{3-({3-(4-Chlorophenyl)-5-oxo-4-[(2S)-3,3,3-trifluoro-2-hydroxypropyl]-4,5-dihydro-1H-1,2,4-triazol-1-yl}methyl)-5-[(3-oxopiperazin-1-yl)carbonyl]-1H-1,2,4-triazol-1-yl}-N-(3,3,3-trifluoropropyl)pyridine-3-carboxamide]"
8.25,26.5,6.82,,"Cc1cc(NC(=O)c2ccccc2-n2cnc(Cn3nc(-c4ccc(Cl)cc4)n(C[C@H](O)C(F)(F)F)c3=O)n2)ccc1F [Example 228, 2-[3-({3-(4-Chlorophenyl)-5-oxo-4-[(2S)-3,3,3-trifluoro-2-hydroxypropyl]-4,5-dihydro-1H-1,2,4-triazol-1-yl}methyl)-1H-1,2,4-triazol-1-yl]-N-(4-fluoro-3-methylphenyl)benzamide]"
7.17,43.4,5.53,,"CC(=O)N[C@H]1CCN(C(=O)c2ccccc2-n2cnc(Cn3nc(-c4ccc(Cl)cc4)n(C[C@H](O)C(F)(F)F)c3=O)n2)C1 [Example 180, N-[(3S)-1-{2-[3-({3-(4-Chlorophenyl)-5-oxo-4-[(2S)-3,3,3-trifluoro-2-hydroxypropyl]-4,5-dihydro-1H-1,2,4-triazol-1-yl}methyl)-1H-1,2,4-triazol-1-yl]benzoyl}pyrrolidin-3-yl]acetamide]"
7.98,360.2,5.42,,CC(C)(C)CC(=O)Nc1ncccc1-n1cnc(Cn2nc(-c3ccc(Cl)cc3)n(C[C@H](O)C(F)(F)F)c2=O)n1 [Example 158]
7.82,47.3,6.15,,"O=C(NC1CC1(F)F)c1cccc(Cl)c1-n1cnc(Cn2nc(-c3ccc(Cl)cc3)n(C[C@H](O)C(F)(F)F)c2=O)n1 (mixture of isomers) [Example 371, 3-Chloro-2-[3-({3-(4-chlorophenyl)-5-oxo-4-[(2S)-3,3,3-trifluoro-2-hydroxypropyl]-4,5-dihydro-1H-1,2,4-triazol-1-yl}methyl)-1H-1,2,4-triazol-1-yl]-N-[2,2-difluorocyclopropyl]benzamide]"
8.31,515.5,5.60,,"CN(CCC#N)C(=O)c1ccccc1-n1cnc(Cn2nc(-c3ccc(Cl)cc3)n(C[C@H](O)C(F)(F)F)c2=O)n1 [Example 362, 2-[3-({3-(4-Chlorophenyl)-5-oxo-4-[(2S)-3,3,3-trifluoro-2-hydroxypropyl]-4,5-dihydro-1H-1,2,4-triazol-1-yl}methyl)-1H-1,2,4-triazol-1-yl]-N-(2-cyanoethyl)-N-methylbenzamide]"
6.36,17.8,5.11,,"O=C(c1cccc(Cl)c1-n1cnc(Cn2nc(-c3ccc(Cl)cc3)n(C[C@H](O)C(F)(F)F)c2=O)n1)N1CCC[C@H]1C(F)(F)F [Example 383, 5-(4-Chlorophenyl)-2-{[1-(2-chloro-6-{[(2S)-2-(trifluoromethyl)pyrrolidin-1-yl]carbonyl}phenyl)-1H-1,2,4-triazol-3-yl]methyl}-4-[(2S)-3,3,3-trifluoro-2-hydroxypropyl]-2,4-dihydro-3H-1,2,4-triazol-3-one]"
6.87,15.2,5.69,,O=C(Cc1ccccc1)Nc1ncccc1-n1cnc(Cn2nc(-c3ccc(Cl)cc3)n(C[C@H](O)C(F)(F)F)c2=O)n1 [Example 97]
8.49,37.2,6.92,,"CC(C)C(C)NC(=O)c1ccccc1-n1cnc(Cn2nc(-c3ccc(Cl)cc3)n(C[C@H](O)C(F)(F)F)c2=O)n1 (mixture of isomers) [Example 345, 2-[3-({3-(4-Chlorophenyl)-5-oxo-4-[(2S)-3,3,3-trifluoro-2-hydroxypropyl]-4,5-dihydro-1H-1,2,4-triazol-1-yl}methyl)-1H-1,2,4-triazol-1-yl]-N-[(2R)-3-methylbutan-2-yl]benzamide]"
6.98,21.9,5.64,,Cc1ccc(C(=O)Nc2ncccc2-n2cnc(Cn3nc(-c4ccc(Cl)cc4)n(C[C@H](O)C(F)(F)F)c3=O)n2)cc1 [Example 123]
8.26,62.7,6.46,,"O=C(NCc1ccccc1F)c1ccccc1-n1cnc(Cn2nc(-c3ccc(Cl)cc3)n(C[C@H](O)C(F)(F)F)c2=O)n1 [Example 363, 2-[3-({3-(4-Chlorophenyl)-5-oxo-4-[(2S)-3,3,3-trifluoro-2-hydroxypropyl]-4,5-dihydro-1H-1,2,4-triazol-1-yl}methyl)-1H-1,2,4-triazol-1-yl]-N-(2-fluorobenzyl)benzamide]"
8.24,64.0,6.44,,"O=C(NCc1cccs1)c1ccccc1-n1cnc(Cn2nc(-c3ccc(Cl)cc3)n(C[C@H](O)C(F)(F)F)c2=O)n1 [Example 253, 2-[3-({3-(4-Chlorophenyl)-5-oxo-4-[(2S)-3,3,3-trifluoro-2-hydroxypropyl]-4,5-dihydro-1H-1,2,4-triazol-1-yl}methyl)-1H-1,2,4-triazol-1-yl]-N-(thiophen-2-ylmethyl)benzamide]"
8.29,185.4,6.02,,"O=C(Nc1cccnc1-n1cnc(Cn2nc(-c3ccc(Cl)cc3)n(CC(O)C(F)(F)F)c2=O)n1)C1CC1F (mixture of isomers) [Example 59, N-{2-[3-({3-(4-Chlorophenyl)-5-oxo-4-[(2S)-3,3,3-trifluoro-2-hydroxypropyl]-4,5-dihydro-1H-1,2,4-triazol-1-yl}methyl)-1H-1,2,4-triazol-1-yl]pyridin-3-yl}-2-fluorocyclopropanecarboxamide]"
9.06,118.4,6.99,,"O=C(NC1CCCC1)c1ccccc1-n1cnc(Cn2nc(-c3ccc(Cl)cc3)n(C[C@H](O)C(F)(F)F)c2=O)n1 [Example 343, 2-[3-({3-(4-Chlorophenyl)-5-oxo-4-[(2S)-3,3,3-trifluoro-2-hydroxypropyl]-4,5-dihydro-1H-1,2,4-triazol-1-yl}methyl)-1H-1,2,4-triazol-1-yl]-N-cyclopentylbenzamide]"
7.28,65.4,5.47,,"NC(=O)[C@H]1CC(F)(F)CN1C(=O)c1cccc(Cl)c1-n1cnc(Cn2nc(-c3ccc(Cl)cc3)n(C[C@H](O)C(F)(F)F)c2=O)n1 [Example 391, 1-{3-Chloro-2-[3-({3-(4-chlorophenyl)-5-oxo-4-[(2S)-3,3,3-trifluoro-2-hydroxypropyl]-4,5-dihydro-1H-1,2,4-triazol-1-yl}methyl)-1H-1,2,4-triazol-1-yl]benzoyl}-4,4-difluoro-D-prolinamide]"
6.93,10.7,5.90,,O=C(Nc1ncccc1-n1cnc(Cn2nc(-c3ccc(Cl)cc3)n(C[C@H](O)C(F)(F)F)c2=O)n1)C1CCOCC1 [Example 134]
